PMC7530392, “A label‐free impedance assay in endothelial cells differentiates the activation and desensitization properties of clinical S1P1 agonists” (FEBS Open Bio, 2020)
Entries after “also recorded” stand apart in the source; their conditions may differ. Like-named read-outs stand apart in the source and are kept apart here.

Assays:
recombinant human GRK2 = molecular target: T1, recombinant human GRK2 (Homo sapiens, UniProt P25098); assay: 33P-ATP flash plate kinase assay; assay type: biochemical; conditions: 3 µM ATP, biotin-[…] substrate
T1 construct: purchased Thermo Fisher PR4694A
T1 sequence (P25098 1-689): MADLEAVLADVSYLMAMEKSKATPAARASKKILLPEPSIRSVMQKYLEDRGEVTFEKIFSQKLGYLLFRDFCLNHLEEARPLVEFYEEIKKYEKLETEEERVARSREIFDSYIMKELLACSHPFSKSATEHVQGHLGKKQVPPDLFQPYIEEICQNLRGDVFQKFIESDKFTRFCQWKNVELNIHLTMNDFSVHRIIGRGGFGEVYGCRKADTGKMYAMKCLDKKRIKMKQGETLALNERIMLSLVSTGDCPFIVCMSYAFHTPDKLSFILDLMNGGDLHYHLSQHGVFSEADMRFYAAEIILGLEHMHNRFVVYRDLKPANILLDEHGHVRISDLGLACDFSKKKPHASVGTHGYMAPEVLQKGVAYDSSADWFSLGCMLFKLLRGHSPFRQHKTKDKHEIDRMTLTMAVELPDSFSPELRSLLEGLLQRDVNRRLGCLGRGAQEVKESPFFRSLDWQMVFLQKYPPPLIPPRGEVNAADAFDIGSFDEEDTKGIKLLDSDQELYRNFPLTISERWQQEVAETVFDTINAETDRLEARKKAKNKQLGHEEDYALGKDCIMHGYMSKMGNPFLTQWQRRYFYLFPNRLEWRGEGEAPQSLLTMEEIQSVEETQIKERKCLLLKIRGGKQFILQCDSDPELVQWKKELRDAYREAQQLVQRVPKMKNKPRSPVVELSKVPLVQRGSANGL

human S1P1 = assay: β-arrestin recruitment assay in PathHunter cells overexpressing human S1P1; assay type: cell-based; conditions: read-out: IC50 inhibition of β-arrestin recruitment
Protocol: The cellular potency of the GRK2 inhibitor was determined using a β‐arrestin recruitment assay in PathHunter® cells overexpressing human S1P1 (Eurofins DiscoverX Corporation, San Diego, CA, USA; catalogue number 93‐0207C2) as described. The mean IC50 from at least 3 separate experiments was reported.

S1P1 [1] = molecular target: T2, S1P1 (Homo sapiens, UniProt P21453); assay: Label-free impedance assay in HUVEC, first stimulation (early and late BNCI response); assay type: cell-based; conditions: for Late phase Max: determined manually for bell-shaped responses; for Early phase Max: BNCI curve maximum; for Early phase Max / Early phase Min / Early phase Hill slope: early response; for Early phase Min: BNCI curve minimum; for Emax: read-out: Maximum BNCI in late response as % of E max in early response; for EC50: first stimulation, geometric mean; for Impedance profile in the presence of the GRK2 inhibitor: 10 µM GRK2 inhibitor, over 60 min
T2 construct: host or cells: HUVEC (pooled donors)
Protocol: (§1) HUVECs from pooled donors (PromoCell GmbH, Heidelberg, Germany, C‐12203) were seeded at 10 000 cells per well, in complete medium (C2210, C39210) containing 2% fetal bovine serum (FBS), in 96‐well collagen‐I coated E‐plates. Cells were allowed to attach and proliferate for 6 h, followed by overnight serum starvation in medium containing 0.1% FBS. Electrical impedance was measured continuously with RTCA‐MP station (xCELLigence RTCA, ACEA‐Biosciences, San Diego, CA, USA), according to the manufacturer’s protocol, and expressed as baseline normalized cell index (BNCI) using RTCA2.0 software. Impedance measurements were analyzed for 60 min following addition of test compounds or DMSO control, and the early (peak response at 8–10 min) and late response (at 60 min) was used for further analysis. Cells were then washed in medium containing 0.1% FBS for 5.5 h. The effect of each test compound to desensitize the response to a second stimulation with the natural ligand S1P (80 nM) was measured in the same wells and expressed as the AUC0–60 min of the S1P‐induced BNCI response. […] The baseline for the BNCI calculation was the respective vehicle responses for the first (0.1% DMSO) and second stimulations (2.5 µg·mL^−1 BSA). When tested, 10 µM GRK2 inhibitor was pretreated with cells for 2 h prior to addition of test compounds and its effect on early and late responses measured as above. All experiments were repeated on at least 3 separate occasions.
Effective concentration corresponding to half of the difference between the maximum and minimum effect (EC50) of agonists was determined with SAS procedure NLIN in SAS system release 9.1 under UNIX via BIOSTAT@T‐SPEED‐LTS v2.0 internal software using the 4‐parameter logistical model.

[2] = cited from earlier work
lymphocytes = conditions: approved dose in MS; no reference given; cited from earlier work
S1P1 [3] = molecular target: T2, S1P1; assay: Desensitization of S1P-induced BNCI response in HUVEC (second stimulation with 80 nM S1P); assay type: cell-based; conditions: for Desensitization Max: S1P-induced BNCI response curve maximum; for Desensitization Max / Desensitization Min / Desensitization Hill slope: arithmetic mean; for Desensitization Min: S1P-induced BNCI response curve minimum; for IC50: absolute 50% reduction of control S1P (80 nM)-induced BNCI AUC0–60 min after 5.5 h wash, geometric mean, read-out: Desensitization IC50 [95% CI]
Protocol: as §1
The activation‐to‐desensitization ratio was expressed as IC50/EC50 for early phase. EC50, IC50, and activation‐to‐desensitization ratio were reported as geometric mean with 95% confidence intervals.

[4] = BNCI at 60 min, arithmetic mean
[5] = late (60 min) versus early phase
[6] = BNCI peak response at 8–10 min, read-out: Early phase EC50 [95% CI]

T2 sequence (P21453 whole entry): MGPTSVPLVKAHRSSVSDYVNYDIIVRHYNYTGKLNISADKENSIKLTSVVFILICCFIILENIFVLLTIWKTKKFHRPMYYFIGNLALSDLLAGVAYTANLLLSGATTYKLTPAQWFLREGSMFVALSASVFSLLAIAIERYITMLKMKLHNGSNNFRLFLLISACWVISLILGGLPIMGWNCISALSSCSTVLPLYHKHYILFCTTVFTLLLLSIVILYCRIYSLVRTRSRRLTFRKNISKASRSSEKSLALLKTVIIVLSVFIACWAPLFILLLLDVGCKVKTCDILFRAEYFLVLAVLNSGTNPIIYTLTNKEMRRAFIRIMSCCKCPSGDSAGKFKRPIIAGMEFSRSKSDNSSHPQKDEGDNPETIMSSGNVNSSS

Row | SMILES | Shape of concentration–effect relationship in the late response (S1P1 [1]; BNCI at 60 min) | Late phase Max (S1P1 [1]; [4]) | Early phase Max (S1P1 [1]; arithmetic mean) | Early phase Min (S1P1 [1]; arithmetic mean) | Early phase Hill slope (S1P1 [1]; arithmetic mean) | Emax (S1P1 [1]; [5]) [%] | Volume of distribution in human [2] | Lymphocyte reduction (lymphocytes) | Desensitization Max (S1P1 [3]) | Desensitization Min (S1P1 [3]) | Desensitization Hill slope (S1P1 [3]) | EC50 (S1P1 [1]; [6]) [nM] | IC50 (S1P1 [3]) [nM] | Impedance profile in the presence of the GRK2 inhibitor (S1P1 [1]) | other results
1 | O=C(NCc1ccc2onc(NCc3ccccc3C(F)(F)F)c2c1)c1ccc2[nH]ncc2c1 [GRK2 inhibitor, 1H‐Indazole‐5‐carboxylic acid [3‐(2‐trifluoromethyl‐benzylamino)‐1,2‐benzisoxazol‐5‐ylmethyl]‐amide] |  |  |  |  |  |  |  |  |  |  |  |  |  |  | IC50 (recombinant human GRK2): 44 nM; IC50 (human S1P1): 1100 nM
2 | CC(C)Oc1ccc(-c2nc(-c3cccc4c3CC[C@@H]4NCCO)no2)cc1C#N [Ozanimod, ozanimod] | bell‐shaped | 0.234 | 0.461 | 0.188 | 1.1 | 51 | 5590 [5] L | 55% | 91.5 | −13.9 | −1.5 |  |  |  | 
3 | CCC/N=C1\S/C(=C\c2ccc(OC[C@H](O)CO)c(Cl)c2)C(=O)N1c1ccccc1C [Ponesimod, ponesimod] | bell‐shaped | 0.468 | 0.582 | 0.175 | 1.2 | 81 | 160 [37] L |  | 79.3 | −38.2 | −0.9 | 2.41 | 18.4 |  | Activation-to-desensitization ratio [95% CI] (S1P1 [3]; desensitization IC50 / early phase EC50, geometric mean): 7.66 (3.41–17.2); S1P-induced BNCI response after preincubation at the highest concentrations tested (S1P1 [3]; second stimulation with S1P): fall below the baseline
4 | Cc1cc(-c2nc3cnc(Oc4cccc(Cl)c4)nc3o2)cc(C)c1OCC(=O)O [SAR247799] |  | 0.425 | 0.527 | 0.101 | 1.0 |  | 7–23 [13] L |  | 89.3 | 1.1 | −1.9 | 26.1 | 2980 | sustained BNCI increase with no signal decline over 60 min | Late phase Hill slope (S1P1 [1]; [4]): 0.7; Late phase Min (S1P1 [1]; [4]): 0.045; EC50 (S1P1 [1]; BNCI at 60 min, read-out: Late phase EC50 [95% CI]): 42.8 nM; Maximum BNCI in late response as % of E max in early response (S1P1 [1]; [5]): 81%; Further increase of late response by presence of GRK inhibitor (S1P1 [1]; late response, 10 µM GRK inhibitor pretreated 2 h): 2 fold
5 | CCc1cc(/C(C)=N/OCc2ccc(C3CCCCC3)c(C(F)(F)F)c2)ccc1CN1CC(C(=O)O)C1 [Siponimod, siponimod] | bell‐shaped | 0.150 | 0.440 | 0.012 | 0.7 | 34 |  | 70–80% | 96.8 | −16.3 | −1.0 | 0.977 | 0.167 | sustained BNCI increase with no signal decline over 60 min | Barrier effect in late response in the presence of the GRK inhibitor (S1P1 [1]; 10 µM GRK inhibitor, same concentrations that gave negative BNCI without inhibitor): improved barrier integrity; Late response BNCI at highest concentrations (barrier effect) (S1P1 [1]; 60 min, absence of GRK inhibitor): endothelial barrier disruption; also recorded: concentration‐dependent decrease to negative BNCI values
6 | CCCCCCCCc1ccc(CCC(N)(CO)CO)cc1 [fingolimod] |  |  |  |  |  |  |  | 70–80% |  |  |  |  |  |  | 
